Measurements from PubChem BioAssay (NCI).
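Protocol summary: plate cells (96-well), add compound at 5 concentrations, incubate 48 h, interpolate endpoints linearly. GI50 = concentration required for 50% inhibition of growth. The concentration for full growth arrest is given as TGI.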

How the values were obtained:
Test in all cases: NCI-60 cell line screen, 48 h
[1] = system: MDA-N
[2] = system: M19-MEL melanoma
[3] = system: RXF-631 renal
[4] = system: SNB-78 CNS
[5] = system: LXFL 529 NSCLC
[6] = system: DMS 114 small cell lung
[7] = system: KM20L2 colon
[8] = system: HOP-18 NSCLC
[9] = system: XF 498 CNS

| SMILES | TGI [2] [µM] | TGI [3] [µM] | TGI [4] [µM] | TGI [5] [µM] | TGI [6] [µM] | TGI [7] [µM] | TGI [8] [µM] | TGI [9] [µM] | further results |
| --- | --- | --- | --- | --- | --- | --- | --- | --- | --- |
| O=C(CCCn1ccnc1[N+](=O)[O-])NCCn1cnc([N+](=O)[O-])c1 | – | – | – | – | – | – | – | – | TGI [1]: > 100 µM |
| NNC(=O)CC(=O)Nc1ccccc1F | > 100 | > 100 | > 100 | > 100 | > 100 | > 100 | > 100 | – | – |
| N#Cc1cc2cc3c4c(c2oc1=O)CCCN4CCC3 | – | – | – | – | – | – | – | – | TGI [1]: > 100 µM |
| Cn1c(=O)c(C(c2ccccc2)c2c(O)c3ccccc3n(C)c2=O)c(O)c2ccccc21 | > 100 | > 100 | > 100 | > 100 | > 100 | > 100 | > 100 | > 100 | – |
| CC1SC2=NC3=C(c4ccccc4C3=O)C(c3ccc(Br)cc3)N2C1=O (configuration not stated) | > 100 | – | – | > 100 | > 100 | > 100 | – | > 100 | – |
| CC1=C(C(=O)Nc2ccccc2C)C(c2ccc(N(C)C)cc2)C(C(=O)Nc2ccccc2C)=C(C)N1 | > 100 | > 100 | – | – | > 100 | > 100 | – | > 100 | – |
| COC1=NN2C(OC)(c3ccccc3)c3c(-c4ccccc4)sc(-c4ccccc4)c3C2(c2ccccc2)S1 (configuration not stated) | – | > 100 | > 100 | > 100 | – | – | – | > 100 | – |
| COc1ccc(-c2cc(-c3ccccc3)c(C#N)c(=O)[nH]2)cc1 | > 100 | > 100 | > 100 | > 100 | > 100 | > 100 | > 100 | – | – |
| COc1cc(C)c(C(=O)/C=C/c2cc(OC)c(O)c(OC)c2)cc1O | 54 | 59.8 | > 100 | 40.3 | 72.3 | 57.6 | – | 30.7 | – |
| CC(C)O/C=C1\C(=O)C2(SCCS2)[C@H]2CCCC[C@@H]12 | > 100 | > 100 | > 100 | > 100 | – | > 100 | > 100 | – | – |
| CCC[CH2][Sn]1([CH2]CCC)[O]C(=O)C[S]1 | 7.75 | 5.05 | 4.14 | 1.55 | 4.08 | 15.9 | 2.91 | 2.74 | GI50 [2]: 1.9 µM; GI50 [3]: 0.85 µM; GI50 [4]: 1.17 µM; GI50 [9]: 1.41 µM; GI50 [5]: 0.312 µM; GI50 [6]: 1.29 µM; GI50 [7]: 4.06 µM; GI50 [8]: 1.57 µM |
| O=C1Cc2ccccc2N1/N=C\c1ccc(O)cc1 | > 100 | > 100 | > 100 | – | > 100 | > 100 | > 100 | > 100 | – |
| COc1cc2ccc(CC#N)cc2cc1OC | > 100 | > 100 | > 100 | > 100 | > 100 | > 100 | – | > 100 | – |
| CC1OC(OC2C(OC3C[C@@]4(C)C(C[C@H](O)[C@H]5[C@H](C6(C)CCC(C(C)(C)O)O6)CCC54C)[C@]4(C)CC[C@@H](O)C(C)(C)C34)OC(CO)C(O)C2O)C(O)C(O)C1O (some centres not stated) (tested in a mixture with another compound) | – | – | – | – | – | – | – | – | TGI [1]: > 100 µM |
| C(=C1\CCC/C(=C/c2ccccc2)C1=NNc1ccccc1)/c1ccccc1 | > 100 | > 100 | > 100 | > 100 | > 100 | > 100 | > 100 | – | – |
| CNC1=C(C)C(=O)C(C)=C(C(C)(C)CC(=O)n2cc(F)c(=O)[nH]c2=O)C1=O | > 100 | > 100 | > 100 | > 100 | > 100 | > 100 | > 100 | > 100 | – |
| O=C(N/C(=C\c1ccc([N+](=O)[O-])cc1)c1nc2[nH]c(=S)[nH]c(=O)c2[nH]1)c1ccccc1 | > 100 | – | > 100 | > 100 | > 100 | > 100 | – | > 100 | – |
| Cn1c2ccccc2c2cc(-c3ccccc3)c3c(c21)C(=O)C=CC3=O | 46.6 | > 100 | > 64.8 | 18.6 | 19.8 | – | – | 32.1 | TGI [1]: 41.8 µM |

| SMILES | TGI [2] [µM] | TGI [3] [µM] | TGI [4] [µM] | TGI [5] [µM] | TGI [6] [µM] | TGI [7] [µM] | TGI [8] [µM] | TGI [9] [µM] | further results |
| --- | --- | --- | --- | --- | --- | --- | --- | --- | --- |
| O=C1C2Cc3ccccc3CN2C(=O)N1CN1CCN(CN2C(=O)C3Cc4ccccc4CN3C2=O)CC1 (configuration not stated) | > 100 | > 100 | > 100 | – | > 100 | > 100 | > 100 | – | – |
| COc1cc(NCC(C#N)C#N)ccc1N=Nc1ccc([N+](=O)[O-])cc1 | > 100 | > 100 | > 100 | > 100 | > 100 | > 100 | > 100 | – | – |
| OC(COc1ccc(Cl)cc1Cl)CN1CCCC1 (configuration not stated) | – | – | – | – | – | – | – | – | TGI [1]: > 100 µM |
| CCCNC(=O)c1cc2ccccc2cc1C(=O)OC | > 100 | > 100 | > 100 | > 100 | > 100 | > 100 | > 100 | > 100 | – |
| N/C(=N\OC(=O)NC(Cl)=C(Cl)Cl)c1cc(C(F)(F)F)cc(C(F)(F)F)c1 | – | – | – | – | – | – | – | – | TGI [1]: 59.5 µM |
| CCOC(=O)CNC(SC)=C(C#N)C#N | > 100 | – | > 100 | > 100 | > 100 | > 100 | – | > 100 | – |
| O=C1c2c(c3c4ccccc4n4c3c3c2c2ccccc2n3C/C=C\C4)C(=O)N1Cc1ccccc1 | > 100 | – | – | > 100 | – | > 100 | > 100 | 85.9 | – |
| COc1cc2c(c3oc(-c4ccc5c(c4)OCO5)c(O)c(=O)c13)CCC(C)(C)O2 | > 100 | > 100 | > 100 | > 100 | > 100 | – | > 100 | – | – |
| CCOC(=O)c1c(-c2[nH]c(C(=O)OCc3ccccc3)c(C)c2C(=O)OCC)[nH]c(C(=O)OCc2ccccc2)c1C | > 100 | – | > 100 | > 100 | > 100 | > 100 | > 100 | – | – |
| COc1ccc(CNc2nc3ccccc3nc2-c2cccs2)cc1OC | > 100 | > 100 | > 100 | > 100 | – | > 100 | > 100 | 59.6 | – |
| CSc1nc2c(nc(N)n2C2OCC(O)C(O)C2O)c(=O)[nH]1 (configuration not stated) | > 100 | > 100 | > 100 | > 100 | > 100 | > 100 | > 100 | > 100 | – |
| O=C1c2cnccc2Cc2cccc3c2N1c1ccccc1S3 | 86.7 | > 100 | – | > 100 | 73.6 | 34.8 | – | 32.6 | – |
| O=C1C[C@@H](c2ccccc2)NCCCCN(O)CCCN1 | – | – | – | – | – | – | – | – | TGI [1]: > 100 µM |
| COc1cc(C/C=C/c2ccccc2)c(OC)cc1O | – | – | – | – | – | – | – | – | TGI [1]: 33.8 µM |
| OCCc1cnco1 | > 100 | – | > 100 | > 100 | > 100 | > 100 | > 100 | – | – |
| CSc1nc(Cl)c(Br)c(Nc2c[nH]c(=O)[nH]c2=O)n1 | – | – | – | – | – | – | – | – | TGI [1]: 46.9 µM |
| COc1cc(C2[C@H]3C(=O)N(c4ccc(Cc5ccc(N6C(=O)[C@@H]7ON(c8ccccc8)C(c8cc(OC)c(OC)c(OC)c8)[C@@H]7C6=O)cc5)cc4)C(=O)[C@H]3ON2c2ccccc2)cc(OC)c1OC (some centres not stated) | > 100 | > 100 | > 100 | – | > 100 | > 100 | > 100 | – | – |
